# Where two headings read alike, the source gives them in different places.
# Tests used:
# [1] = test system: vancomycin-sensitive Staphylococcus aureus Newman strain; assay: In vitro antibacterial activity assay (MIC, CLSI dilution method); type: cell-based; details: Staphylococcus aureus, S. aureus Newman, 37° C., 16 h
# [2] = test system: vancomycin-middle resistant Staphylococcus aureus Mu50 strain; assay: as above; type: cell-based
# [3] = test system: Staphylococcus aureus USA300 LAC strain (CA-MRSA); type: in vivo
# [4] = In vivo pharmacokinetic assay in mice
# [5] = Staphylococcus aureus; S. aureus Mu50, 37° C., 16 h; read-out: MIC Mu50
# [6] = male CD-1 mice, intravenous single dose 5 mg/kg
# [7] = Staphylococcus aureus, 16 h, S. aureus Mu50, 37° C., read-out: MIC Mu50
# [8] = Staphylococcus aureus, 16 h, read-out: MIC Mu50
# [9] = male, CD-1, mouse, in vivo, iv, 5 mg/kg
SMILES,MIC ([1]; NEWMAN) [mg/L],"MIC [2, 7] [mg/L]",MIC [1] [mg/L],other results
"CCCCCCCCCCNCCN[C@@]1(C)C[C@H](O[C@H]2[C@H](Oc3c4cc5cc3Oc3ccc(cc3Cl)[C@@H](O)[C@@H](NC(=O)[C@@H](CC(C)C)NC)C(=O)N[C@@H](CC(N)=O)C(=O)N[C@H]5C(=O)N[C@H]3C(=O)N[C@H](C(=O)N[C@H](C(=O)O)c5cc(O)c(CNCP(=O)(O)O)c(O)c5-c5cc3ccc5O)[C@H](O)c3ccc(c(Cl)c3)O4)O[C@H](CO)[C@@H](O)[C@@H]2O)O[C@@H](C)[C@H]1O [Tela., telavancin, reference compound]",–,–,< 0.0625,"MIC [2, 5]: 1 mg/L; survival rate ([3]; in vivo, ip, 7 mg/kg): 93.3%; AUCINF_obs [4, 6]: 17.304 ± 5.745 µg·h/mL; AUClast [4, 6]: 17.143 ± 5.611 µg·h/mL; CL_obs [4, 6]: 0.306 ± 0.09 L/h/kg; MRTINF_obs [4, 6]: 1.71 ± 0.13 h; T1/2 [4, 6]: 1.13 ± 0.13 h"
CN[C@H](CC(C)C)C(=O)N[C@H]1C(=O)N[C@@H](CC(N)=O)C(=O)N[C@H]2C(=O)N[C@H]3C(=O)N[C@H](C(=O)NC(C(=O)NCCCN(C)C)c4cc(O)c(CNCCCNC(=O)[C@H](O)[C@@H](O)[C@H](O)[C@H](O)CO)c(O)c4-c4cc3ccc4O)[C@H](O)c3ccc(c(Cl)c3)Oc3cc2cc(c3OC2O[C@H](CO)C(O)C(O)[C@H]2O[C@H]2CC(C)(NCc3ccc(-c4ccc(Cl)cc4)cc3)[C@H](O)C(C)O2)Oc2ccc(cc2Cl)[C@H]1O (stereo partly shown) [Van022],1,2,–,–
CN[C@H](CC(C)C)C(=O)N[C@H]1C(=O)N[C@@H](CC(N)=O)C(=O)N[C@H]2C(=O)N[C@@H]3C(=O)N[C@H](C(=O)N[C@H](C(=O)NCCCNC(=O)[C@H](O)[C@@H](O)[C@H](O)[C@H](O)CO)c4cc(O)cc(O)c4-c4cc3ccc4O)[C@H](O)c3ccc(c(Cl)c3)Oc3cc2cc(c3OC2O[C@H](CO)C(O)C(O)[C@H]2O[C@H]2CC(C)(NCc3ccc(-c4ccc(Cl)cc4)cc3)[C@H](O)C(C)O2)Oc2ccc(cc2Cl)[C@H]1O (stereo partly shown) [Van023],–,–,2,"MIC [2, 8]: 4 mg/L"
CN[C@H](CC(C)C)C(=O)N[C@H]1C(=O)N[C@@H](CC(N)=O)C(=O)N[C@H]2C(=O)N[C@H]3C(=O)N[C@H](C(=O)N[C@H](C(=O)O)c4cc(O)c(CNCCCNC(=O)[C@H](O)[C@@H](O)[C@H](O)[C@H](O)CO)c(O)c4-c4cc3ccc4O)[C@H](O)c3ccc(c(Cl)c3)Oc3cc2cc(c3OC2O[C@H](CO)C(O)C(O)[C@H]2O[C@@H]2CC(C)[C@@H](O)C(C)(NCc3ccc(C#C[Si](C)(C)C)cc3)C2)Oc2ccc(cc2Cl)[C@H]1O (stereo partly shown) [Van028],–,–,1,"MIC [2, 5]: 2 mg/L"
CN[C@H](CC(C)C)C(=O)N[C@H]1C(=O)N[C@@H](CC(N)=O)C(=O)N[C@H]2C(=O)N[C@@H]3C(=O)N[C@H](C(=O)N[C@H](C(=O)O)c4cc(O)c(CNC5C(O)OC(CO)[C@H](O)[C@@H]5O)c(O)c4-c4cc3ccc4O)[C@H](O)c3ccc(c(Cl)c3)Oc3cc2cc(c3O[C@@H]2O[C@H](CO)C(O)C(O)[C@H]2O[C@H]2CC(C)(NCc3ccc(-c4ccc(C(F)(F)F)cc4)cc3)[C@H](O)[C@H](C)O2)Oc2ccc(cc2Cl)[C@H]1O (stereo partly shown) [Van032],–,–,≤ 0.0625,"MIC [2, 8]: ≤ 0.0625 mg/L; in vivo antibacterial activity against methicillin-resistant Staphylococcus aureus, comparison with positive controls ([3]; BALB/c mice, 7 mg/kg i.p., 10 days): better activity than vancomycin; survival rate ([3]; female BALB/c mice, USA300 LAC retro-orbital, single dose 7 mg/kg intraperitoneally 1 h after infection, after 10 days): 73.3%; CL_obs [4, 6]: 0.207 ± 0.024 L/h/kg; VSS_obs [4, 6]: 0.9 ± 0.18 L/kg; AUC(0-inf) [4, 9]: 24.3 ± 2.8 µg·h/mL; AUC(0-t) [4, 9]: 20.1 ± 1.71 µg·h/mL; MRT inf [4, 9]: 4.41 ± 1.23 h; half-life [4, 9]: 3.45 ± 1.26 h"
CN[C@H](CC(C)C)C(=O)N[C@H]1C(=O)N[C@@H](CC(N)=O)C(=O)N[C@H]2C(=O)N[C@@H]3C(=O)N[C@H](C(=O)N[C@H](C(=O)O)c4cc(O)c(CNC5C(O)OC(CO)[C@H](O)[C@@H]5O)c(O)c4-c4cc3ccc4O)[C@H](O)c3ccc(c(Cl)c3)Oc3cc2cc(c3O[C@@H]2O[C@H](CO)C(O)C(O)[C@H]2O[C@H]2CC(C)(NCc3ccc(C#C[Si](C)(C)C)cc3)[C@H](O)[C@H](C)O2)Oc2ccc(cc2Cl)[C@H]1O (stereo partly shown) [Van033],–,–,0.5,"MIC [2, 5]: 2 mg/L"
CCCCCCCCCCNC1(C)C[C@H](O[C@@H]2C(O)C(O)[C@@H](CO)O[C@H]2Oc2c3cc4cc2Oc2ccc(cc2Cl)[C@@H](O)[C@@H](NC(=O)[C@@H](CC(C)C)NC)C(=O)N[C@@H](CC(N)=O)C(=O)N[C@H]4C(=O)N[C@@H]2C(=O)N[C@H](C(=O)N[C@H](C(=O)O)c4cc(O)c(CNC5C(O)OC(CO)[C@H](O)[C@@H]5O)c(O)c4-c4cc2ccc4O)[C@H](O)c2ccc(c(Cl)c2)O3)O[C@@H](C)[C@H]1O (stereo partly shown) [Van034],≤ 0.0625,0.25,–,–
C#Cc1ccc(CNC2(C)C[C@H](O[C@@H]3C(O)C(O)[C@@H](CO)O[C@H]3Oc3c4cc5cc3Oc3ccc(cc3Cl)[C@@H](O)[C@@H](NC(=O)[C@@H](CC(C)C)NC)C(=O)N[C@@H](CC(N)=O)C(=O)N[C@H]5C(=O)N[C@@H]3C(=O)N[C@H](C(=O)N[C@H](C(=O)O)c5cc(O)c(CNC6C(O)OC(CO)[C@H](O)[C@@H]6O)c(O)c5-c5cc3ccc5O)[C@H](O)c3ccc(c(Cl)c3)O4)O[C@@H](C)[C@H]2O)cc1 (stereo partly shown) [Van035],–,–,2,"MIC [2, 8]: 8 mg/L"
CCCCCc1ccc(CNC2(C)C[C@H](O[C@@H]3C(O)C(O)[C@@H](CO)O[C@H]3Oc3c4cc5cc3Oc3ccc(cc3Cl)[C@@H](O)[C@@H](NC(=O)[C@@H](CC(C)C)NC)C(=O)N[C@@H](CC(N)=O)C(=O)N[C@H]5C(=O)N[C@@H]3C(=O)N[C@H](C(=O)N[C@H](C(=O)O)c5cc(O)c(CNC6C(O)OC(CO)[C@H](O)[C@@H]6O)c(O)c5-c5cc3ccc5O)[C@H](O)c3ccc(c(Cl)c3)O4)O[C@@H](C)[C@H]2O)cc1 (stereo partly shown) [Van036],–,–,0.25,"MIC [2, 8]: 0.5 mg/L"

# Now from value to compound, other results behind:
MIC ([1]; NEWMAN) [mg/L],"MIC [2, 7] [mg/L]",SMILES,MIC [1] [mg/L],other results
0.125,0.5,CCCCCCCCCCNC1(C)C[C@H](O[C@H]2C(Oc3c4cc5cc3Oc3ccc(cc3Cl)[C@@H](O)[C@@H](NC(=O)[C@@H](CC(C)C)NC)C(=O)N[C@@H](CC(N)=O)C(=O)N[C@H]5C(=O)N[C@H]3C(=O)N[C@H](C(=O)N[C@H](C(=O)O)c5cc(O)c(CNCCCNC(=O)[C@H](O)[C@@H](O)[C@H](O)[C@H](O)CO)c(O)c5-c5cc3ccc5O)[C@H](O)c3ccc(c(Cl)c3)O4)O[C@H](CO)C(O)C2O)CC(C)[C@H]1O (stereo partly shown) [Van024],–,–
16,32,CCCCCCCCCCC(=O)NC1(C)C[C@H](O[C@H]2C(Oc3c4cc5cc3Oc3ccc(cc3Cl)[C@@H](O)[C@@H](NC(=O)[C@@H](CC(C)C)NC)C(=O)N[C@@H](CC(N)=O)C(=O)N[C@H]5C(=O)N[C@H]3C(=O)N[C@H](C(=O)N[C@H](C(=O)O)c5cc(O)c(CNCCCNC(=O)[C@H](O)[C@@H](O)[C@H](O)[C@H](O)CO)c(O)c5-c5cc3ccc5O)[C@H](O)c3ccc(c(Cl)c3)O4)O[C@H](CO)C(O)C2O)CC(C)[C@H]1O (stereo partly shown) [Van025],–,–
32,64,CCCCCCCCCC(=O)NC1(C)C[C@H](O[C@H]2C(Oc3c4cc5cc3Oc3ccc(cc3Cl)[C@@H](O)[C@@H](NC(=O)[C@@H](CC(C)C)NC)C(=O)N[C@@H](CC(N)=O)C(=O)N[C@H]5C(=O)N[C@H]3C(=O)N[C@H](C(=O)N[C@H](C(=O)O)c5cc(O)c(CNCCCNC(=O)[C@H](O)[C@@H](O)[C@H](O)[C@H](O)CO)c(O)c5-c5cc3ccc5O)[C@H](O)c3ccc(c(Cl)c3)O4)O[C@H](CO)C(O)C2O)CC(C)[C@H]1O (stereo partly shown) [Van026],–,–
1,4,CN[C@H](CC(C)C)C(=O)N[C@H]1C(=O)N[C@@H](CC(N)=O)C(=O)N[C@H]2C(=O)N[C@H]3C(=O)N[C@H](C(=O)N[C@H](C(=O)O)c4cc(O)c(CNCCCNC(=O)[C@H](O)[C@@H](O)[C@H](O)[C@H](O)CO)c(O)c4-c4cc3ccc4O)[C@H](O)c3ccc(c(Cl)c3)Oc3cc2cc(c3OC2O[C@H](CO)C(O)C(O)[C@H]2O[C@@H]2CC(C)[C@@H](O)C(C)(NCc3cccc4ccccc34)C2)Oc2ccc(cc2Cl)[C@H]1O (stereo partly shown) [Van027],–,–
4,8,C#Cc1ccc(CNC2(C)C[C@H](O[C@H]3C(Oc4c5cc6cc4Oc4ccc(cc4Cl)[C@@H](O)[C@@H](NC(=O)[C@@H](CC(C)C)NC)C(=O)N[C@@H](CC(N)=O)C(=O)N[C@H]6C(=O)N[C@H]4C(=O)N[C@H](C(=O)N[C@H](C(=O)O)c6cc(O)c(CNCCCNC(=O)[C@H](O)[C@@H](O)[C@H](O)[C@H](O)CO)c(O)c6-c6cc4ccc6O)[C@H](O)c4ccc(c(Cl)c4)O5)O[C@H](CO)C(O)C3O)CC(C)[C@H]2O)cc1 (stereo partly shown) [Van029],–,–
1,2,CCCCOc1ccc(CNC2(C)C[C@H](O[C@H]3C(Oc4c5cc6cc4Oc4ccc(cc4Cl)[C@@H](O)[C@@H](NC(=O)[C@@H](CC(C)C)NC)C(=O)N[C@@H](CC(N)=O)C(=O)N[C@H]6C(=O)N[C@H]4C(=O)N[C@H](C(=O)N[C@H](C(=O)O)c6cc(O)c(CNCCCNC(=O)[C@H](O)[C@@H](O)[C@H](O)[C@H](O)CO)c(O)c6-c6cc4ccc6O)[C@H](O)c4ccc(c(Cl)c4)O5)O[C@H](CO)C(O)C3O)CC(C)[C@H]2O)cc1 (stereo partly shown) [Van030],–,–
0.125,0.5,CCCCCc1ccc(CNC2(C)C[C@H](O[C@H]3C(Oc4c5cc6cc4Oc4ccc(cc4Cl)[C@@H](O)[C@@H](NC(=O)[C@@H](CC(C)C)NC)C(=O)N[C@@H](CC(N)=O)C(=O)N[C@H]6C(=O)N[C@H]4C(=O)N[C@H](C(=O)N[C@H](C(=O)O)c6cc(O)c(CNCCCNC(=O)[C@H](O)[C@@H](O)[C@H](O)[C@H](O)CO)c(O)c6-c6cc4ccc6O)[C@H](O)c4ccc(c(Cl)c4)O5)O[C@H](CO)C(O)C3O)CC(C)[C@H]2O)cc1 (stereo partly shown) [Van031],–,–

# Source: patent US10961278B2, “Vancomycin derivative, preparation method, pharmaceutical composition and use thereof” (SHANGHAI INSTITUTE OF MATERIA MEDICA, CHINESE ACADEMY OF …, priority 2016, dated 2021)
